Target: T1, ENaC (Homo sapiens, UniProt P37088+P51168+P51170)
T1 construct: endogenous in cells; host or cells: primary human bronchial epithelial (HBE) cells at air-liquid interface
T1 sequence (P37088 1-669): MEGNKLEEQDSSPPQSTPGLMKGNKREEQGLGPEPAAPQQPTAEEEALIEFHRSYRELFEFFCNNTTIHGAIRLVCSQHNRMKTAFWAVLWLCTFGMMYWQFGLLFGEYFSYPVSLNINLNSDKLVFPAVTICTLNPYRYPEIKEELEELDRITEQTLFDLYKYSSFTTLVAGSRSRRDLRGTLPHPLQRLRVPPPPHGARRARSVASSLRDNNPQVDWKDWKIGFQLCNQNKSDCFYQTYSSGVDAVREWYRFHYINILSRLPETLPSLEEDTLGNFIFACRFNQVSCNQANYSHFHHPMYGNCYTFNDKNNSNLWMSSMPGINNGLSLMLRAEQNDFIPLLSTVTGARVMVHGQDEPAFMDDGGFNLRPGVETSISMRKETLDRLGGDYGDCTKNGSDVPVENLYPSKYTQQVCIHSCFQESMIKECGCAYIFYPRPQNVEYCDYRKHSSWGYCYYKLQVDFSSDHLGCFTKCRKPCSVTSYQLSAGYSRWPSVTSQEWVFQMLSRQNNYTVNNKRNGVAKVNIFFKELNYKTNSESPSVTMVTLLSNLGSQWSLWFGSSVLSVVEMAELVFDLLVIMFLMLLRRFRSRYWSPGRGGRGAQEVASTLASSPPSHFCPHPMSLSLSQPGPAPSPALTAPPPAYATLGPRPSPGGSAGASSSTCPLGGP
T1 sequence (P51168 1-640): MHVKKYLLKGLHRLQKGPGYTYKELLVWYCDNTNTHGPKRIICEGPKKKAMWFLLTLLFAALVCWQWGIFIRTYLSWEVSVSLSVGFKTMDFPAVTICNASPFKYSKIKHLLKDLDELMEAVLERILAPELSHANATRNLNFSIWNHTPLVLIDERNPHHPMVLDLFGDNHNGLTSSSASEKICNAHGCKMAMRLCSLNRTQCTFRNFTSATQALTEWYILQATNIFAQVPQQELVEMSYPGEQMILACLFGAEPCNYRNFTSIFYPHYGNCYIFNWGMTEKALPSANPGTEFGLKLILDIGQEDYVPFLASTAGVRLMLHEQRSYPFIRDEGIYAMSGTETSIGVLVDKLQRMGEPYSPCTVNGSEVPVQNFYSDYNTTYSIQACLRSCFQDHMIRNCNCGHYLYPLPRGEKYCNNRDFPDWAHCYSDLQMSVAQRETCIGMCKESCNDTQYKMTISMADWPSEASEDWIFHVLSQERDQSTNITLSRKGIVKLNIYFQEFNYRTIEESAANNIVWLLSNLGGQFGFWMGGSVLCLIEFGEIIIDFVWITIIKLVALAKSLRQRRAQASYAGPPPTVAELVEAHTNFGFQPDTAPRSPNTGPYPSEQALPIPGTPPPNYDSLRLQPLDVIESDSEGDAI
T1 sequence (P51170 1-649): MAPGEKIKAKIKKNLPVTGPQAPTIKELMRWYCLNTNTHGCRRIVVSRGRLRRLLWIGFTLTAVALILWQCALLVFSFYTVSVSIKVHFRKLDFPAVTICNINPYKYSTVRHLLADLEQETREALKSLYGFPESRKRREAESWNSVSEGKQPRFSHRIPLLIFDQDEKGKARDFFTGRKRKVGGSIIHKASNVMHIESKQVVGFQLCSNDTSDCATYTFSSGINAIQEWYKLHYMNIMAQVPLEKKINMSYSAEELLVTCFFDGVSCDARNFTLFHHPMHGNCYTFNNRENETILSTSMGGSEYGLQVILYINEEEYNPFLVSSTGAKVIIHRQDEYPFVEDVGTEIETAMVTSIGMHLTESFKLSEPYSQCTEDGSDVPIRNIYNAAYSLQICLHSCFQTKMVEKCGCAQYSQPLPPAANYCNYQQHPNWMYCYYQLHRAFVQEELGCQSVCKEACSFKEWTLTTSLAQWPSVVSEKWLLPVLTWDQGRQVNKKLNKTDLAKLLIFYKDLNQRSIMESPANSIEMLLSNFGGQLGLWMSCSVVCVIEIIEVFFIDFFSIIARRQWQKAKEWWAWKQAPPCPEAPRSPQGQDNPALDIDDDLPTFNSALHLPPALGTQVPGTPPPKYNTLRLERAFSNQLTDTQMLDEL
Assay: ENaC Na^+ conductance in HBE cells
Format: cell-based
Settings: 10 μM, 5 min pretreatment; amiloride 10 μM
Protocol: FIG. 2A-E. Characterization of TMEM16A activators. FIG. 2A. Cytoplasmic calcium measured by Fluo-4 fluorescence. 100 μM ATP (gray line) or 10 μM of indicated TMEM16A activators were added at the arrow. FIG. 2B. Apical membrane current measured in TMEM16A-expressing FRT cells in the presence of a transepithelial chloride gradient and after basolateral membrane permeabilization. […] T16Ainh-A01 (10 μM) added where indicated. […] (right) Concentration-activation data summary (mean±S.E., n=4-6). FIG. 2C. Synergistic effect of Eact and Fact. (left and center) Representative current traces showing synergy. (right) Data summary of low doses of TMEM16A activation (mean±S.E., n=5, * P<0.05). FIG. 2D. Apical membrane current measured in FRT cells transfected with mouse TMEM16A or TMEM16B. FIG. 2E. Effect of Eact and Fact on CFTR and ENaC. (left) FRT cells expressing wild type CFTR and YFP indicator were pretreated for 5 min with 10 μM Eact and Fact. Forskolin (10 μM) added as indicated. […]
Snapwell inserts containing TMEM16A-expressing FRT, HBE, CF HBE or HTG cells were mounted in Ussing chambers (Physiologic Instruments, San Diego, Calif.). […] Apical membrane current (for FRT cells) and short-circuit current were measured using an EVC4000 Multi-Channel V/I Clamp (World Precision Instruments, Sarasota, Fla.) and recorded using PowerLab/8sp (AD Instruments, Castle Hill, Australia).

For `O=C(Nc1ccc(Br)cc1)c1cccc(-n2cnnn2)c1` [Fact, N-(4-bromophenyl)-3-(1H-tetrazol-1-yl)benzamide], the “effect on ENaC Na^+ conductance” value was “Neither Eact nor Fact affected”.

Reference: patent publication US9790218B2, “Small molecule activators of calcium-activated chloride channels and methods of use” (The Regents of the University of California, priority 2011, dated 2017)
